Literature values in publication PMC9851200, “Multiparameter phenotypic screening for endogenous TFEB and TFE3 translocation identifies novel chemical series modulating lysosome function” (Autophagy, 2022).

Key:
Design in all cases: method as in original PKIS2 published data
[1] = target: T1, kinases (KINOMEscan panel) (Homo sapiens, UniProt O75385); details: Published KINOMEscan; ref original PKIS2 published data; cited from earlier work
T1 sequence (O75385 1-1050): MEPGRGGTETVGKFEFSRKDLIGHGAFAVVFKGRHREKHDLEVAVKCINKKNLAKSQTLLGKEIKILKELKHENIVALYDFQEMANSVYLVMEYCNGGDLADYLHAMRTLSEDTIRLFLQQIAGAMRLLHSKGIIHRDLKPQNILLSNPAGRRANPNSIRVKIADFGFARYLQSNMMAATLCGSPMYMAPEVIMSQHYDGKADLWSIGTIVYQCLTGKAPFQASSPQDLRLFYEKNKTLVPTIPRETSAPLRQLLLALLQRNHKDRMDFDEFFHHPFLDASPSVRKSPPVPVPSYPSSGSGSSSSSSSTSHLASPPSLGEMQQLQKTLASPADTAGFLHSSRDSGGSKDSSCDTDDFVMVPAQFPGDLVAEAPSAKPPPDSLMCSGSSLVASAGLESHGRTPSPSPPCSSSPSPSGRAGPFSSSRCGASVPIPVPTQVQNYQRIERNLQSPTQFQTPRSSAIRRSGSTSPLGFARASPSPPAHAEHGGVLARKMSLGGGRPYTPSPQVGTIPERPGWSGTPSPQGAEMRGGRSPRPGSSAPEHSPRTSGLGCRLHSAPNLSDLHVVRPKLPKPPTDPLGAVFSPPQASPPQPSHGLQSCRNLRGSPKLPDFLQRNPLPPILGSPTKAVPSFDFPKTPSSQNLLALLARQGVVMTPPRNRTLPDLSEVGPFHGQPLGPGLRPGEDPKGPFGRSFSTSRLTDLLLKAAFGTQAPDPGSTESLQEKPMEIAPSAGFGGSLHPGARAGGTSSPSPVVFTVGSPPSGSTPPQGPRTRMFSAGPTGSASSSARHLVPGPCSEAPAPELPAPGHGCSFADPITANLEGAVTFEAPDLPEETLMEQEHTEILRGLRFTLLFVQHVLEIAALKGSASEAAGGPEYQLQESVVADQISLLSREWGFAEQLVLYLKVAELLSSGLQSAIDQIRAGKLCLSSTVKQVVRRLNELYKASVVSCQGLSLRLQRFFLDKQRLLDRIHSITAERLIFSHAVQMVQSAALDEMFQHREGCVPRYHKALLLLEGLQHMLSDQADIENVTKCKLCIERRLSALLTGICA

[2] = target: kinases (KINOMEscan panel) (Homo sapiens, UniProt P00519); details: Published KINOMEscan, ref original PKIS2 published data, cited from earlier work
[3] = target: T2, kinases (KINOMEscan panel) (Homo sapiens, UniProt P29322); details: kinase EPHA8; Published KINOMEscan; ref original PKIS2 published data; cited from earlier work
T2 sequence (P29322 28-1005): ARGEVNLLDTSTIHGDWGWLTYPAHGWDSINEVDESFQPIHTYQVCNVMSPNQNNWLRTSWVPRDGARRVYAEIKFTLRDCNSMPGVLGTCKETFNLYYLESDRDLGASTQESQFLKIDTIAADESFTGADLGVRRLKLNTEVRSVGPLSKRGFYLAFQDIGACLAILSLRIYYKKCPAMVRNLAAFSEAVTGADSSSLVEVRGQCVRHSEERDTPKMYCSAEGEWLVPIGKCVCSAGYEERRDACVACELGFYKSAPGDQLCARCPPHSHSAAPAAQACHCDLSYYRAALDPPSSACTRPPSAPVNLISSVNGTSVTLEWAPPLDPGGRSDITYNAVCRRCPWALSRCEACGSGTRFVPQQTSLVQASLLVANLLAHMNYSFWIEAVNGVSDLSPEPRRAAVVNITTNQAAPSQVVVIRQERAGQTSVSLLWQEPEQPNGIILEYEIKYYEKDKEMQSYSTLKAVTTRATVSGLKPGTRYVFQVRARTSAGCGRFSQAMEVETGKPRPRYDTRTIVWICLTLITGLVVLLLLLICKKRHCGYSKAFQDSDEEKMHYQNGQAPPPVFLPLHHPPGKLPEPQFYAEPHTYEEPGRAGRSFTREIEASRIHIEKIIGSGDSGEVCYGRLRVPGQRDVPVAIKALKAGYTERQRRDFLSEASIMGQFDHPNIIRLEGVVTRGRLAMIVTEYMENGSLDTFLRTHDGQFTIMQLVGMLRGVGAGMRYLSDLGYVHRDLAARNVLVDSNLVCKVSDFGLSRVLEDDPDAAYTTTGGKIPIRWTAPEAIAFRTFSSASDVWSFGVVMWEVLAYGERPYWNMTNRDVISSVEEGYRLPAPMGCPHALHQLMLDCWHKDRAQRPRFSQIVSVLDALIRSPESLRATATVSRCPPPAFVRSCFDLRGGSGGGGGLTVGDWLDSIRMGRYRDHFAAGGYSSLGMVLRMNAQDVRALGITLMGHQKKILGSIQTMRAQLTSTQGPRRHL

[4] = target: kinases (KINOMEscan panel) (Homo sapiens, UniProt P31749); details: kinase AKT1; Published KINOMEscan; ref original PKIS2 published data; cited from earlier work
[5] = target: kinases (KINOMEscan panel) (Homo sapiens, UniProt Q15569); details: TESK1; Published KINOMEscan; ref original PKIS2 published data; cited from earlier work
[6] = target: T3, kinases (KINOMEscan panel) (Homo sapiens, UniProt Q6PHR2); details: kinase ULK3; Published KINOMEscan; ref original PKIS2 published data; cited from earlier work
T3 sequence (Q6PHR2 1-472): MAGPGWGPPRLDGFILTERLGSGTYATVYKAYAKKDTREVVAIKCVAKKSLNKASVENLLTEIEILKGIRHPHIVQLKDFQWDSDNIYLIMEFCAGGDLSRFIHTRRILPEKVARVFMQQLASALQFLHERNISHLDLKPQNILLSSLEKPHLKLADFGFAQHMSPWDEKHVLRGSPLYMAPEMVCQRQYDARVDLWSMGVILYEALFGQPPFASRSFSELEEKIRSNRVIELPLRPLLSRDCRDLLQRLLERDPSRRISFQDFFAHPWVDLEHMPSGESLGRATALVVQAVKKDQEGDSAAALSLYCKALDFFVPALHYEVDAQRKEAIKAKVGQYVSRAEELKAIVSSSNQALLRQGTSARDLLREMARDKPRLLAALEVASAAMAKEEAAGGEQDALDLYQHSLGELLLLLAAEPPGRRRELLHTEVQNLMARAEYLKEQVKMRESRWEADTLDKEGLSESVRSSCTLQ

kinases (KINOMEscan panel) (Homo sapiens, UniProt P00519), sequence (P00519 whole entry): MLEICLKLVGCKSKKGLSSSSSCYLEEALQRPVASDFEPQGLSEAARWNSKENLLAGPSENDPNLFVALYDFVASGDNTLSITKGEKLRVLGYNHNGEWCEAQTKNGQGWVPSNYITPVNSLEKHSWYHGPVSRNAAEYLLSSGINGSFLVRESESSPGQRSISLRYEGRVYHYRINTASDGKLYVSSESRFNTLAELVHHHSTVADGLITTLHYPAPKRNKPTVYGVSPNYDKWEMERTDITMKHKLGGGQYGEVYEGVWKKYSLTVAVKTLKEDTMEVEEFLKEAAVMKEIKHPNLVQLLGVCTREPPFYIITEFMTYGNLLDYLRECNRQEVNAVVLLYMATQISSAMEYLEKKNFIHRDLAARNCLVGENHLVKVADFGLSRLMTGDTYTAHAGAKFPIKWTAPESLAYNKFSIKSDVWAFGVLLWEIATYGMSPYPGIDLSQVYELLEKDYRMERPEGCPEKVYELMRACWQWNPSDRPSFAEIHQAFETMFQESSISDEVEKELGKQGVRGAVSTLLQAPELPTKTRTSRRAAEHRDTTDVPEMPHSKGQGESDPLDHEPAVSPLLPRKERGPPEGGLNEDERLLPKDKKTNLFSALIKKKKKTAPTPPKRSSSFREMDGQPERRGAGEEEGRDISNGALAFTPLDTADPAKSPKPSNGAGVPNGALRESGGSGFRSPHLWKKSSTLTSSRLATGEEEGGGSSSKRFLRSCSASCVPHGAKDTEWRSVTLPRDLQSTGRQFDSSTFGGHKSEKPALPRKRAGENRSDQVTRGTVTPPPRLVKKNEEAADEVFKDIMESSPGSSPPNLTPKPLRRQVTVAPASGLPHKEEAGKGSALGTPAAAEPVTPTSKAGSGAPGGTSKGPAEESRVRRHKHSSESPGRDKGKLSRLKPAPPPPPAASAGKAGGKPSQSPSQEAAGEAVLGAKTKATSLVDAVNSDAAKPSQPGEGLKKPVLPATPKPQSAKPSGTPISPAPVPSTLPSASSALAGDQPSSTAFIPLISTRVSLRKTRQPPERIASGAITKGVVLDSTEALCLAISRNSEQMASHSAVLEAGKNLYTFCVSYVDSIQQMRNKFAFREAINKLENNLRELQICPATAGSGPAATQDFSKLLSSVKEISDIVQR
kinases (KINOMEscan panel) (Homo sapiens, UniProt P31749), sequence (P31749 whole entry): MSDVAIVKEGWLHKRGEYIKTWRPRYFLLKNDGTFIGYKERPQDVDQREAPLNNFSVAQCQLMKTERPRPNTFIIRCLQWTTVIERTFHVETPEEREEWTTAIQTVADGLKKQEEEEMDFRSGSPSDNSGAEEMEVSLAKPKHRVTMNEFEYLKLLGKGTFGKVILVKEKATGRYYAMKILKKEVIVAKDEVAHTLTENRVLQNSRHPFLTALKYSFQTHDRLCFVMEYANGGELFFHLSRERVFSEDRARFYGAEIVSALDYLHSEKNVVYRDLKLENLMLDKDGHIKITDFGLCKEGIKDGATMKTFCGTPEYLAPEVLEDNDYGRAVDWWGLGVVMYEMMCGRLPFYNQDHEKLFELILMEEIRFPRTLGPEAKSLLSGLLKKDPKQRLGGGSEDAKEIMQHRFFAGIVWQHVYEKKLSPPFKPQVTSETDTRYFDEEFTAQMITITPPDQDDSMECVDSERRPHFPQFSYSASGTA
kinases (KINOMEscan panel) (Homo sapiens, UniProt Q15569), sequence (Q15569 whole entry): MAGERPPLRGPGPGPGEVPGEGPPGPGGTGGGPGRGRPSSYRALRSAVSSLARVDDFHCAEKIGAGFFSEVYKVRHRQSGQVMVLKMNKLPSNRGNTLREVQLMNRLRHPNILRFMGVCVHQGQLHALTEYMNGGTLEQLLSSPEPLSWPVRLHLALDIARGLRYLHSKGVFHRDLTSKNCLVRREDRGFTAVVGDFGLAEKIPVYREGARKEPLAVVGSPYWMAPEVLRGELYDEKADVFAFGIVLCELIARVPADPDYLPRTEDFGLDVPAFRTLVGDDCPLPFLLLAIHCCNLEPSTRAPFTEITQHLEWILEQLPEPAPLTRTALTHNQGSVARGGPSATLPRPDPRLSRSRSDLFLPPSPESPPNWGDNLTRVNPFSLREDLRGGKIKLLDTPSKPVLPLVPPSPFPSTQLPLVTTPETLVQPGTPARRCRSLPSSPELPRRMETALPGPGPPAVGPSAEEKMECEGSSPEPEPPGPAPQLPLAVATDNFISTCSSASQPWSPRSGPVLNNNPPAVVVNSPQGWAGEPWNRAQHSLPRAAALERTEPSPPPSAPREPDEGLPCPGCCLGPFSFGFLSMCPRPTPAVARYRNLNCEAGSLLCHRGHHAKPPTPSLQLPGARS

Cc1cccc(-c2nc(Nc3ccncc3)c3ccccc3n2)n1 [NK215]
KINOMEscan ULK1 [1]: 0
KINOMEscan ABL1-nonphosphorylated ([2]; ABL1-nonphosphorylated): 39
KINOMEscan ABL1-phosphorylated ([2]; ABL1-phosphorylated): 28
KINOMEscan EPHA8 [3]: 7
KINOMEscan AKT1 [4]: 20
KINOMEscan TESK1 [5]: 14
KINOMEscan ULK3 [6]: 8
